Numbered stars: 1 amine (or outer) side, 2 acyl side, 3 side chain; on linkers, the order of the positions; unused ones are H or OH. Square brackets hold non-standard residues; d marks the D form. Peptide text beside a SMILES is read from it. NMeTrp(1-OMe) = CN[C@@H](Cc1cn(OC)c2ccccc12)C(=O)O; Butanoyl(2R-oxy,4-CN) = N#CCC[C@@H](O)C(=O)O; X1 = CCCC[C@@H](C)C[C@H](N[*:1])C(=O)[*:2]; NMeL = CN[C@@H](CC(C)C)C(=O)O; NMeA = CN[C@@H](C)C(=O)O
How the values were obtained:
HMEC [1] = assay: inhibition of TNF-alpha-induced ICAM-1 expression in the human microvascular endothelial cell line HMEC-1; type: functional, cell-based
HMEC [2] = assay: inhibition of TNF-alpha-induced VCAM-1 expression in the human microvascular endothelial cell line HMEC-1; type: functional, cell-based

Compound | IC50 (HMEC [1]) [nM] | IC50 (HMEC [2]) [nM]
CCCC[C@@H](C)C[C@@H]1NC(=O)[C@H](Cc2cn(OC)c3ccccc23)N(C)C(=O)[C@H](CC(C)C)NC(=O)[C@H](CC(C)C)N(C)C(=O)[C@H](C[C@H](C)CCCC)NC(=O)[C@@H](C)OC[C@H](C)N(C)C1=O | 1660 | 15
CCCC[C@@H](C)C[C@@H]1NC(=O)[C@H](Cc2cn(OC)c3ccccc23)N(C)C(=O)[C@H](CC(C)C)NC(=O)[C@H](CC(C)C)N(C)C(=O)[C@H](C[C@H](C)CCCC)NC(=O)COC[C@H](C)N(C)C1=O |  | 200
CCCC[C@@H](C)C[C@H]1CN(C)[C@@H](C)C(=O)O[C@H](C)C(=O)N[C@@H](C[C@H](C)CCCC)C(=O)N(C)[C@@H](CC(C)C)C(=O)N[C@@H](CC(C)C)C(=O)N(C)[C@@H](Cc2cn(OC)c3ccccc23)C(=O)N1 | > 30000 | 18
CCCC[C@@H](C)C[C@@H]1NC(=O)[C@H](Cc2cn(OC)c3ccccc23)N(C)C(=O)[C@H](CC(C)C)NC(=O)[C@H](CC(C)C)N(C)C(=O)[C@H](C[C@H](C)CCCC)NC(=O)[C@H](C)OC[C@H](C)N(C)C1=O | > 30000 | 630
CCCC[C@@H](C)C[C@H]1CN(C)[C@@H](C)C(=O)N[C@H](C)C(=O)N[C@@H](C[C@H](C)CCCC)C(=O)N(C)[C@@H](CC(C)C)C(=O)N[C@@H](CC(C)C)C(=O)N(C)[C@@H](Cc2cn(OC)c3ccccc23)C(=O)N1 | 6920 | 92
CCCC[C@@H](C)C[C@@H]1NC(=O)[C@H](Cc2cn(OC)c3ccccc23)N(C)C(=O)[C@H](CC(C)C)NC(=O)[C@H](CC(C)C)N(C)C(=O)[C@H](C[C@H](C)CCCC)NC(=O)[C@@H](C)OC(=O)[C@H](C)N(C)C1=O | 178 | 2
CCCC[C@@H](C)C[C@@H]1NC(=O)[C@H](Cc2cn(OC)c3ccccc23)N(C)C(=O)[C@H](CC(C)C)NC(=O)[C@H](CC(C)C)N(C)C(=O)[C@H](C[C@H](C)CCCC)NC(=O)[C@@H](CCC#N)OC(=O)[C@H](C)N(C)C1=O (cyclo(L[NMeTrp(1-OMe)][X1][NMeA][Butanoyl(2R-oxy,4-CN)][X1][NMeL])) | 25 | 

Reference: ChEMBL document CHEMBL1137884, “Synthesis of ether analogues derived from HUN-7293 and evaluation as inhibitors of VCAM-1 expression” (Bioorg Med Chem Lett, 2004)
